From patent publication EP0245669B1, “Pharmaceutical preparation for preventing damage to living cells by free radicals, or for increasing the efficacy of organic sulphur compounds, and process for increasing the life span of isolated organs” (Medopharm Arzneimittelwerk Dr. Zillich GmbH & Co., priority 1986, dated 1987)
Counter-ions that a name gives are not always drawn.

Tested on: weiblichen C3H Mäusen
Test: Radiation protection: survival of mice after gamma irradiation (cobalt-60) following i.p. pretreatment
Format: in vivo, Mäuse
Details: for überlebten eine Bestrahlung mit 9 Gy / Ueberlebensrate nach Bestrahlung mit 9 Gy: 10 min before 9 Gy; for Ueberlebensrate nach Bestrahlung mit 9 Gy / Ueberlebensrate nach Bestrahlung mit 10 Gy / Ueberlebensrate nach Bestrahlung mit 11 Gy / Ueberlebensrate nach Bestrahlung mit 12 Gy / Ueberlebensrate nach Bestrahlung mit 14 Gy / Ueberlebensrate nach Bestrahlung mit 13 Gy: surviving after 30 days/irradiated mice; for Ueberlebensrate nach Bestrahlung mit 10 Gy / überlebten eine Bestrahlung mit 10 Gy: 10 min before 10 Gy; for Ueberlebensrate in %: AET alone in optimal dosage, 30 days after irradiation
Excerpt: In den nachfolgenden Beispielen wurde die synergistische Wirkung der durch die erfindungsgemässe Verwendung hergestellten pharmazeutischen Präparate mit organische Schwefelverbindungen enthaltenden Präparaten anhand des Strahlenschutzes getestet und es wurde auch die Strahlenschutzwirkung der Zinkionen enthaltenden Präparate mit bisher bekannten Strahlenschutzpräparaten an Mäusen getestet. Die Versuche wurden mit weiblichen C3H Mäusen (GL. Bomholtgard, Ry, Dänemark) durchgeführt, die 20 bis 22 g wogen. Die Mäuse wurden unter Bedingungen gehalten, wo sie so viel Standard-Nagetierfutter (Nafag Pellts) fressen und so viel Leitungswasser trinken können, wie sie wollten. Die Bestrahlung erfolgte mit Gammastrahlen aus einer Kobalt-60 Quelle. Es wurden unterschiedliche Bestrahlungen vorgenommen, und zwar mit 9 Gy, 10 Gy, 11 Gy, 12 Gy, 13 Gy und 14 Gy.
10 Minuten vor der Bestrahlung, 30 Minuten vor der Bestrahlung oder 120 Minuten vor der Bestrahlung wurde ein durch die erfindungsgemässe Verwendung hergestelltes synergistisch wirkendes pharmazeutisches Präparat, bzw. ein entsprechendes, Zinkionen enthaltendes Strahlenschutzpräparat oder ein aus dem Stand der Technik bekanntes Strahlenschutzpräparat zu Vergleichszwecken durch intraperitoneale Injektion verabreicht.
Bei der Gruppe der Mäuse zu Vergleichszwecken, die ohne Verabreichung eines Strahlenschutzpräparates bestrahlt wurden, erfolgte 10 Minuten vor der Bestrahlung die Verabreichung von destilliertem Wasser. Bei diesen unbehandelten Mäusen überlebten nur 50% der Tiere eine Bestrahlung von 8 Gy, d.h. der LD₅₀-Wert betrug 8 Gy.
Nach den Arbeitsweisen der vorangegangenen Beispiele 1 bis 4, wurden weitere Tests mit den genannten weiblichen Mäusen durchgeführt, und zwar unter Verwendung der angeführten Zinksalze. Die bei diesen Tests erzielten Ergebnisse sind in der nachfolgenden Tabelle I zusammengestellt. Für jede der angewandten Bestrahlungsstärken ist in der Rubrik "Anzahl" diejenige Anzahl der Mäuse angeführt, welche die Bestrahlung überlebten, geteilt durch die Gesamtzahl der Mäuse, welche bestrahlt wurden. Ein entsprechender Wert von 1/10 bedeutet also, dass von 10 bestrahlten Mäusen eine überlebt hatte. In der Spalte mit der Bezeichnung "Prozent", ist die Prozent-Ueberlebensrate angeführt. Bei einer überlebenden Maus pro 10 getesteten Mäusen beträgt diese Ueberlebensrate 10 %.
Zu Vergleichszwecken sind in der nachfolgenden Tabelle III die Ueberlebensraten von Mäusen zusammengestellt, die nach dem in Beispiel 5 beschriebenen Verfahren einer Vorbehandlung mit einem bekannten schwefelhaltigen Strahlenschutzmittel unterworfen worden waren. Orientierende Vorversuche hatten gezeigt, dass diese Strahlenschutzmittel bereits ihre Wirkung verloren hatten, wenn sie zwei Stunden vor der Einwirkung der Bestrahlung verabreicht worden waren. Die Bestrahlung wurde, wie aus der Tabelle ersichtlich ist, zwei Minuten nach der Verabreichung, in den meisten Fällen 10 Minuten nach der Verabreichung, aber auch 30 Minuten, bzw. 120 Minuten nach der Verabreichung durchgeführt. Die Werte deuten darauf hin, dass 30 Minuten nach der Verabreichung die Schutzwirkung schon wieder deutlich nachgelassen hat. Für jede Bestrahlungsstärke ist wiederum die Anzahl der Tiere angeführt, die nach 30 Tagen überlebt haben, geteilt durch die Gesamtzahl der Tiere, die behandelt und bestrahlt worden waren.
Anhand dieses Beispiels soll die synergistische Wirkung von Zinkionen und Schwefelverbindungen bezüglich eines Strahlenschutzes erläutert werden. Es wurde wieder in der gleichen Weise gearbeitet, wie in den vorangegangenen Beispielen 1 bis 3, bzw. 5, und es wurde auch die gleiche Art an weiblichen Mäusen getestet. Die Verabreichung der Zinkionen enthaltenden Lösung und der Lösung der Schwefelverbindung erfolgte entweder nacheinander oder gleichzeitig durch intraperitoneale Injektion.
In allen Fällen wurde die Ueberlebensrate 30 Tage nach der Einwirkung der Bestrahlung bestimmt.

[1] = comparison with the zinc compounds to be used according to the invention

Compound: N[C@@H](CCC(=O)N[C@@H](CS)C(=O)NCC(=O)O)C(=O)O [L-Glutathion, reference compound]
- überlebten eine Bestrahlung mit 9 Gy (100 mg/kg body weight (lower dose)): 3 von 10 Tieren
- Ueberlebensrate nach Bestrahlung mit 9 Gy (1000 mg/kg i.p.): 3/10
- überlebten eine Bestrahlung mit 9 Gy (2000 mg/kg body weight (higher dose)): 2 von 10 Tieren
- Ueberlebensrate nach Bestrahlung mit 9 Gy (2000 mg/kg i.p.): 2/10
- Strahlenschutzwirkung [1]: deutlich weniger wirksam

Compound: N[C@@H](CC(=O)O)C(=O)[O-].[Na+] [Natriumaspartat, reference compound]
- Strahlenschutzwirkung (20 to 350 mg/kg body weight injected 10 min before 9 Gy, lethal dose already reached): wirkungslos

Compound: Kupferaspartat [reference compound]
- Strahlenschutzwirkung (10 to 30 mg/kg body weight injected 10 min before 9 Gy, lethal dose already reached): wirkungslos

Compound: COc1ccc(CCCCNCCSS(=O)(=O)O)cc1 [reference compound]
- Synergismus mit Zinkionen (Strahlenschutz) (in combination with zinc ions and zinc complexes, procedure of Example 6): die besten Ergebnisse

Compound: N[C@@H](CS)C(=O)O [Cystein, reference compound]
- Ueberlebensrate nach Bestrahlung mit 9 Gy (300 mg/kg i.p.): 0/10
- Ueberlebensrate nach Bestrahlung mit 9 Gy (600 mg/kg i.p.): 7/10
- Ueberlebensrate nach Bestrahlung mit 10 Gy (600 mg/kg i.p.): 3/10
- überlebten eine Bestrahlung mit 10 Gy (600 mg/kg): 3 von 10 Mäusen
- Ueberlebensrate nach Bestrahlung mit 9 Gy (900 mg/kg i.p.): 10/10^+
- Ueberlebensrate nach Bestrahlung mit 10 Gy (900 mg/kg i.p.): 4/10
- Ueberlebensrate nach Bestrahlung mit 11 Gy (900 mg/kg i.p., 10 min before 11 Gy): 0/10
- überlebten eine Bestrahlung mit 10 Gy (900 mg/kg): 4 von 10 Mäusen
- Ueberlebensrate nach Bestrahlung mit 10 Gy (1200 mg/kg i.p.): 9/10^+
- Ueberlebensrate nach Bestrahlung mit 11 Gy (1200 mg/kg i.p., 10 min before 11 Gy): 2/10^+
- Ueberlebensrate nach Bestrahlung mit 12 Gy (1200 mg/kg i.p., 10 min before 12 Gy): 1/10^+
- Ueberlebensrate nach Bestrahlung mit 11 Gy (1200 mg/kg i.p., 30 min before 11 Gy): 0/10
- überlebten eine Bestrahlung mit 10 Gy (1200 mg/kg): 9 von 10 Mäusen
- überlebten (11 Gy) (1200 mg/kg, 10 min before 11 Gy): zwei
- Bestrahlung mit 11 Gy überlebt (600, 900 and 1200 mg/kg, 10 min before 11 Gy): praktisch keinem der Tiere
- Strahlenschutzwirkung [1]: deutlich weniger wirksam

Compound: NCCS [Cysteamin, β-Merkaptoäthylamin, reference compound]
- Ueberlebensrate nach Bestrahlung mit 10 Gy (75 mg/kg i.p.): 0/10
- Strahlenschutzwirkung (150 mg/kg body weight, 10 min before 11 Gy): keine Strahlenschutzwirkung
- Ueberlebensrate nach Bestrahlung mit 9 Gy (150 mg/kg i.p.): 10/10
- Ueberlebensrate nach Bestrahlung mit 10 Gy (150 mg/kg i.p.): 9/10
- Ueberlebensrate nach Bestrahlung mit 11 Gy (150 mg/kg i.p., 10 min before 11 Gy): 0/10
- Ueberlebensrate (225 mg/kg alone, injected 10 min before 13 Gy): 10%
- Ueberlebensrate nach Bestrahlung mit 14 Gy (225 mg/kg i.p., 2 min before 14 Gy): 0/10
- Ueberlebensrate nach Bestrahlung mit 10 Gy (225 mg/kg i.p.): 10/10^+
- Ueberlebensrate nach Bestrahlung mit 11 Gy (225 mg/kg i.p., 10 min before 11 Gy): 8/10^+
- Ueberlebensrate nach Bestrahlung mit 12 Gy (225 mg/kg i.p., 10 min before 12 Gy): 6/10^+
- Ueberlebensrate nach Bestrahlung mit 13 Gy (225 mg/kg i.p., 10 min before 13 Gy): 1/10^+
- Ueberlebensrate nach Bestrahlung mit 14 Gy (225 mg/kg i.p., 10 min before 14 Gy): 0/10
- Ueberlebensrate nach Bestrahlung mit 11 Gy (225 mg/kg i.p., 30 min before 11 Gy): 6/10
- Ueberlebensrate nach Bestrahlung mit 12 Gy (225 mg/kg i.p., 30 min before 12 Gy): 1/10
- Ueberlebensrate nach Bestrahlung mit 11 Gy (225 mg/kg i.p., 120 min before 11 Gy): 0/10
- überlebten eine Bestrahlung mit 11 Gy (225 mg/kg, 10 min before 11 Gy, of 10 animals tested): 8
- überlebten eine Bestrahlung mit 12 Gy (225 mg/kg, 10 min before 12 Gy, of 10 animals tested): 6
- überlebten eine Bestrahlung mit 13 Gy (225 mg/kg, 10 min before 13 Gy, of 10 animals tested): 1
- überlebten eine Bestrahlung mit 14 Gy (225 mg/kg, 10 min before 14 Gy, of 10 animals tested): keines
- überlebten eine Bestrahlung mit 11 Gy (225 mg/kg, 30 min before 11 Gy, of 10 animals tested): 6 Tiere
- überlebten eine Bestrahlung mit 12 Gy (225 mg/kg, 30 min before 12 Gy, of 10 animals tested): 1 Tier

Compound: N=C(N)SCCN [AET, S-(2-Aminoäthyl)-isothiouroniunibromid-hydrobromid, reference compound]
- Ueberlebensrate nach Bestrahlung mit 9 Gy (30 mg/kg i.p.): 1/10
- Strahlenschutzwirksamkeit (125 mg/kg body weight, 10 min before irradiation): keine Strahlenschutzwirksamkeit
- Ueberlebensrate nach Bestrahlung mit 11 Gy (125 mg/kg i.p., 10 min before 11 Gy): 0/10
- Ueberlebensrate nach Bestrahlung mit 13 Gy (125 mg/kg i.p., 10 min before 13 Gy): 0/10
- überlebte eine Bestrahlung mit 11 Gy (125 mg/kg, 10 min before 11 Gy): kein Tier
- überlebte eine Bestrahlung mit 13 Gy (125 mg/kg, 10 min before 13 Gy): kein Tier
- Ueberlebensrate nach Bestrahlung mit 13 Gy (250 mg/kg i.p., 2 min before 13 Gy): 0/10
- Ueberlebensrate nach Bestrahlung mit 11 Gy (250 mg/kg i.p., 10 min before 11 Gy): 10/10^+
- Ueberlebensrate nach Bestrahlung mit 12 Gy (250 mg/kg i.p., 10 min before 12 Gy): 9/10^+
- Ueberlebensrate nach Bestrahlung mit 13 Gy (250 mg/kg i.p., 10 min before 13 Gy): 2/10^+
- Ueberlebensrate nach Bestrahlung mit 14 Gy (250 mg/kg i.p., 10 min before 14 Gy): 0/10
- Ueberlebensrate nach Bestrahlung mit 11 Gy (250 mg/kg i.p., 30 min before 11 Gy): 10/10
- Ueberlebensrate nach Bestrahlung mit 12 Gy (250 mg/kg i.p., 30 min before 12 Gy): 2/10
- Ueberlebensrate nach Bestrahlung mit 11 Gy (250 mg/kg i.p., 120 min before 11 Gy): 0/10
- überlebten eine Bestrahlung von 11 Gy (250 mg/kg, 10 min before 11 Gy): sämtliche
- überlebten eine Bestrahlung von 12 Gy (250 mg/kg, 10 min before 12 Gy): 9 von 10 getesteten Tieren
- überlebten eine Bestrahlung von 13 Gy (250 mg/kg, 10 min before 13 Gy): 2 von 10 getesteten Tieren
- Bestrahlung von 14 Gy überlebt (250 mg/kg, 10 min before 14 Gy, 10 animals tested): von keinem der 10 getesteten Tiere
- Ueberlebensrate in % (11 Gy): 100%
- Ueberlebensrate in % (12 Gy): 90%
- Ueberlebensrate in % (13 Gy): 20%
- Ueberlebensrate in % (14 Gy): 0%
